Experimental findings from patent US20240059703A1 (AMGEN INC., priority 2021, published 2024) are described below.

Experiment [1] has as its system MIA PaCa-2 (human pancreatic carcinoma) cells. In words: Cell Viability Assay (CellTiter-Glo), MIA PaCa-2. The note with it: Homo sapiens, MIA PaCa-2, 72 h. The class given is cell-based. Here is the method: Serially-diluted compound or DMSO was added to the cells, and plates were incubated at 37° C., 5% CO2 for 72 h. Cell viability was measured using a CellTiter-Glo® Luminescent Cell Viability Assay kit (Promega) according to the manufacturer's protocol. The luminescence signal of treated samples was normalized to DMSO control, and data were analyzed using a 4-parameter logistic model to calculate IC50 values.
(In general: Cellular ATP, detected with luciferase, serves as a proxy for viable cell number.)

The next experiment deals with KRAS G12C (Homo sapiens (Human), UniProt P01116, C118A/G12C). In words: 2 h coupled exchange assay. The format is biochemical. The settings on record: Avg 2 h Coupled exchange IC50, 2 h compound pre-incubation, SOS-mediated nucleotide exchange. On the procedure:
The term “2 h coupled exchange assay” or “20 h coupled exchange assay” as used herein refers to the assay described in the Section entitled “BIOLOGICAL EVALUATION.”

In experiment [2] the test system is A549 (human lung carcinoma) cells. Nature of the experiment: Cell Viability Assay (CellTiter-Glo), A549. The format is cell-based. The note with it: Homo sapiens, A549, 72 h. The method in brief: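 MIA PaCa-2 or A549 cells in RPMI 1640 with 10% FBS were seeded at 1.67E+04 cells/mL and incubated overnight. Serially diluted compound was then added for 72 h at 37° C, 5% CO2. Viability read by CellTiter-Glo luminescence, normalized to DMSO, with IC50 from a 4-parameter logistic fit.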

KRAS G12C, sequence (P01116 other isoform, or with tags, fused parts or gaps G12C/C118A): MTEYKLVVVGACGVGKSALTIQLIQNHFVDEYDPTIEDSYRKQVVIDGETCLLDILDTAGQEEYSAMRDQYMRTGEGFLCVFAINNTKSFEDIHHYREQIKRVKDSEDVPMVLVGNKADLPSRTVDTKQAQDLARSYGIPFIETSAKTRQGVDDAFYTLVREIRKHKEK

With `C=CC(=O)N1CC2(CCN(c3nc4c(c(-c5c(C)ccc6[nH]ncc56)c3C#N)C[C@H]3C[C@@H]4C3(C)C)C2C)C1` (stereo partly drawn) [Example 13-94, (1R,9R)-10,10-dimethyl-6-(5-methyl-1H-indazol-4-yl)-4-((5R)-5-methyl-2-(2-propenoyl)-2,6-diazaspior[3.4]octan-6-yl)-3-azatricyclo[7.1.1.0^2,7]undeca-2,4,6-triene-5-carbonitrile|(1R,9R)-10,10-dimethyl-6-(5-methyl-1H-indazol-4-yl)-4-((5S)-5-methyl-2-(2-propenoyl)-2,6-diazaspiro[3.4]octan-6-yl)-3-azatricyclo[7.1.1.0^2,7]undeca-2,4,6-triene-5-carbonitrile], the 50% inhibitory concentration (IC50) in experiment [1] was 42 nM; at KRAS G12C it was 51 nM; in experiment [2], more than 5000 nM.

In the case of `C=CC(=O)N1CC2(CCN(c3nc4c(c(-c5c(C)ccc6[nH]ncc56)c3C#N)COC(C)(C)C4)C2)C1` [Example 13-95, 2-(2-acryloyl-2,6-diazaspiro[3.4]octan-6-yl)-7,7-dimethyl-4-(5-methyl-1H-indazol-4-yl)-7,8-dihydro-5H-pyrano[4,3-b]pyridine-3-carbonitrile], the values for the IC50 (in experiment [1]; at KRAS G12C; in experiment [2]) were 92 nM, 34 nM and more than 5000 nM, respectively.

As to `C=CC(=O)N1CC2(CCN(c3nc4c(c(-c5c(C)ccc6[nH]ncc56)c3C#N)CCCC4(F)F)C2)C1` [Example 13-96, 2-(2-acryloyl-2,6-diazaspiro[3.4]octan-6-yl)-8,8-difluoro-4-(5-methyl-1H-indazol-4-yl)-5,6,7,8-tetrahydroquinoline-3-carbonitrile], the half-maximal inhibitory concentration (IC50) in experiment [1] was more than 5000 nM; against KRAS G12C, 325 nM; in experiment [2], more than 5000 nM.

For the compound `C=CC(=O)N1CC2(CCN(c3nc4c(c(-c5c(C)ccc6[nH]ncc56)c3C#N)CCC4(C)C)C2)C1` [Example 13-97, 2-(2-acryloyl-2,6-diazaspiro[3.4]octan-6-yl)-7,7-dimethyl-4-(5-methyl-1H-indazol-4-yl)-6,7-dihydro-5H-cyclopenta[b]pyridine-3-carbonitrile], the IC50 was 423 nM in experiment [1], 46 nM at KRAS G12C and more than 5000 nM in experiment [2].

In the case of `C=CC(=O)N1CC2(CCN(c3nc4c(c(-c5c(C)ccc6[nH]ncc56)c3C#N)COC3(CCC3)C4)C2)C1` [Example 13-98, 2′-(2-acryloyl-2,6-diazaspiro[3.4]octan-6-yl)-4′-(5-methyl-1H-indazol-4-yl)-5′,8′-dihydrospiro[cyclobutane-1,7′-pyrano[4,3-b]pyridine]-3′-carbonitrile], the results for the 50% inhibitory concentration (IC50) (in experiment [1]; at KRAS G12C; in experiment [2]) were 103 nM, 51 nM and more than 5000 nM, respectively.

As to `C=CC(=O)N1CC2(CCN(c3nc4c(c(-c5c(C)ccc6[nH]ncc56)c3C#N)COC(C(F)(F)F)C4)C2)C1` (stereo not drawn) [Example 13-99], the 50% inhibitory concentration (IC50) in experiment [1] is 1430 nM; at KRAS G12C it was 180 nM; in experiment [2], more than 5000 nM.

Consider `C=CC(=O)N1CC2(CCN(c3nc4c(c(-c5c(C)ccc6[nH]ncc56)c3C#N)COC4(C)C)C2)C1` [Example 13-100, 2-(2-acryloyl-2,6-diazaspiro[3.4]octan-6-yl)-7,7-dimethyl-4-(5-methyl-1H-indazol-4-yl)-5,7-dihydrofuro[3,4-b]pyridine-3-carbonitrile], for which the IC50 was 947 nM in experiment [1], 124 nM against KRAS G12C and more than 5000 nM in experiment [2].

As to `C=CC(=O)N1CC2(CCN(c3nc4c(c(-c5c(C)ccc6[nH]ncc56)c3C#N)CCC43CC3)C2)C1` [Example 13-101, 2-(2-acryloyl-2,6-diazaspiro[3.4]octan-6-yl)-4-(5-methyl-1H-indazol-4-yl)-5,6-dihydrospiro[cyclopenta[b]pyridine-7,1′-cyclopropane]-3-carbonitrile], the half-maximal inhibitory concentration (IC50) in experiment [1] is 1370 nM; on KRAS G12C, 102 nM; in experiment [2], more than 5000 nM.

`C=CC(=O)N1CC2(CCN(c3nc4c(c(-c5c(C)ccc6cnn(C)c56)c3C#N)C[C@H]3C[C@@H]4C3(C)C)C2)C1` [Example 13-104, (1R,9R)-6-(1,6-dimethyl-1H-indazol-7-yl)-10,10-dimethyl-4-(2-(2-propenoyl)-2,6-diazaspiro[3.4]octan-6-yl)-3-azatricyclo[7.1.1.0^2,7]undeca-2,4,6-triene-5-carbonitrile]: the IC50 in experiment [1] is 1340 nM; on KRAS G12C, 97 nM; in experiment [2] it was more than 5000 nM.

Turning to `C=CC(=O)N1CC2(CCN(c3nc4c(c(-c5cc(O)cc6ccccc56)c3C#N)C[C@H]3C[C@@H]4C3(C)C)C2)C1` [Example 13-108, (1R,9R)-6-(3-hydroxy-1-naphthalenyl)-10,10-dimethyl-4-(2-(2-propenoyl)-2,6-diazaspiro[3.4]octan-6-yl)-3-azatricyclo[7.1.1.0^2,7]undeca-2,4,6-triene-5-carbonitrile], the 50% inhibitory concentration (IC50) in experiment [1] was found to be 63 nM; on KRAS G12C, 24 nM; in experiment [2], 2910 nM.

Consider `C=CC(=O)N1CC2(CCN(c3nc4c(c(-c5c(C)ccc6cnn(C)c56)c3C#N)C[C@H]3C[C@@H]4C3)C2)C1` [Example 13-110, (1S,9S)-6-(1,6-dimethyl-1H-indazol-7-yl)-4-(2-(2-propenoyl)-2,6-diazaspiro[3.4]octan-6-yl)-3-azatricyclo[7.1.1.0^2,7]undeca-2,4,6-triene-5-carbonitrile], for which the IC50 is 524 nM in experiment [1], 73 nM against KRAS G12C and more than 5000 nM in experiment [2].

Take `C=CC(=O)N1CC2(CCN(c3nc4c(c(-c5cc(O)ccc5C)c3C#N)COC(C)(C)C4)C2)C1` [Example 13-112, 4-(5-hydroxy-2-methylphenyl)-7,7-dimethyl-2-(2-(2-propenoyl)-2,6-diazaspiro[3.4]octan-6-yl)-7,8-dihydro-5H-pyrano[4,3-b]pyridine-3-carbonitrile]: the 50% inhibitory concentration (IC50) in experiment [1] was more than 5000 nM; on KRAS G12C, 117 nM; in experiment [2] it was more than 5000 nM.

As for `C=CC(=O)N1CC2(CCN(c3nc4c(c(-c5cc(O)ccc5C)c3C#N)C[C@H]3C[C@@H]4C3)C2)C1` [Example 13-113, (1S,9S)-6-(5-hydroxy-2-methylphenyl)-4-(2-(2-propenoyl)-2,6-diazaspiro[3.4]octan-6-yl)-3-azatricyclo[7.1.1.0^2,7]undeca-2,4,6-triene-5-carbonitrile], the IC50 in experiment [1] is more than 5000 nM; on KRAS G12C, 71 nM; in experiment [2], more than 5000 nM.

In the case of `C=CC(=O)N1CC2(CCN(c3nc4c(c(-c5c(C)ccc6cnn(C)c56)c3C#N)CCC3CC43)C2)C1` [Example 13-116, (6aR,7aS)-4-(1,6-dimethyl-1H-indazol-7-yl)-2-(2-(2-propenoyl)-2,6-diazaspiro[3.4]octan-6-yl)-6,6a,7,7a-tetrahydro-5H-cyclopropa[h]quinoline-3-carbonitrile|(6aS,7aR)-4-(1,6-dimethyl-1H-indazol-7-yl)-2-(2-(2-propenoyl)-2,6-diazaspiro[3.4]octan-6-yl)-6,6a,7,7a-tetrahydro-5H-cyclopropa[h]quinoline-3-carbonitrile], the IC50 in experiment [1] is 775 nM; against KRAS G12C, 30 nM; in experiment [2], more than 5000 nM.

With `C=CC(=O)N1CC2(CCN(c3nc4c(c(-c5c(C)ccc6cnn(C)c56)c3C#N)CCC(C)(C)C4)C2)C1` [Example 13-143, 4-(1,6-dimethyl-1H-indazol-7-yl)-7,7-dimethyl-2-(2-(2-propenoyl)-2,6-diazaspiro[3.4]octan-6-yl)-5,6,7,8-tetrahydro-3-quinolinecarbonitrile], the results for the concentration for half-maximal inhibition (IC50) (in experiment [1]; on KRAS G12C; in experiment [2]) were 602 nM, 33 nM and more than 5000 nM, respectively.

Regarding `C=CC(=O)N1CC2(CCN(c3nc4c(c(-c5c(Cl)ccc6[nH]ncc56)c3C#N)CCC(C)(C)C4)C2)C1` [Example 13-144, 4-(5-chloro-1H-indazol-4-yl)-7,7-dimethyl-2-(2-(2-propenoyl)-2,6-diazaspiro[3.4]octan-6-yl)-5,6,7,8-tetrahydro-3-quinolinecarbonitrile], the concentration for half-maximal inhibition (IC50) was 172 nM in experiment [1], 41 nM on KRAS G12C and 3800 nM in experiment [2].

With `C=CC(=O)N1CC2(CCN(c3nc4c(c(-c5c(C)cc(F)c6[nH]ncc56)c3C#N)CCC(C)(C)C4)C2)C1` [Example 13-146, 4-(7-fluoro-5-methyl-1H-indazol-4-yl)-7,7-dimethyl-2-(2-(2-propenoyl)-2,6-diazaspiro[3.4]octan-6-yl)-5,6,7,8-tetrahydro-3-quinolinecarbonitrile], the IC50 was 71 nM in experiment [1], 29 nM against KRAS G12C and more than 5000 nM in experiment [2].

Take `C=CC(=O)N1CC2(CCN(c3nc4c(c(-c5c(C)cc(F)c6[nH]ncc56)c3C#N)COC(C)(C)C4)C2)C1` [Example 13-147, 4-(7-fluoro-5-methyl-1H-indazol-4-yl)-7,7-dimethyl-2-(2-(2-propenoyl)-2,6-diazaspiro[3.4]octan-6-yl)-7,8-dihydro-5H-pyrano[4,3-b]pyridine-3-carbonitrile]: the IC50 in experiment [1] was 176 nM; on KRAS G12C it was 98 nM; in experiment [2], more than 5000 nM.

Turning to `C=CC(=O)N1CC2(CCN(c3nc4c(c(-c5c(Cl)ccc6[nH]ncc56)c3C#N)COC(C)(C)C4)C2)C1` [Example 13-148, 4-(5-chloro-1H-indazol-4-yl)-7,7-dimethyl-2-(2-(2-propenoyl)-2,6-diazaspiro[3.4]octan-6-yl)-7,8-dihydro-5H-pyrano[4,3-b]pyridine-3-carbonitrile], the results for the IC50 (in experiment [1]; on KRAS G12C; in experiment [2]) were 103 nM, 26 nM and more than 5000 nM, respectively.

The term IC50 denotes the concentration at which inhibition is half-maximal. Lower therefore signals greater potency in that assay.
